Source: publication PMC6934184, “Selective DNA-PKcs inhibition extends the therapeutic index of localized radiotherapy and chemotherapy” (The Journal of Clinical Investigation, 2019)

Biological target: T1, CDC42 BPA (MRCKA) (Homo sapiens, UniProt Q5VT25)
T1 construct: purchased Thermo Fisher Scientific (Life Technologies) SelectScreen
Test: SelectScreen Z'LYTE
Format: biochemical
In short: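 NU5455 was profiled across the SelectScreen Broad panel of kinase activity and binding assays. Z'LYTE reactions such as CSF1R ran at apparent Km ATP, while the Adapta CAMK1 assay used ATP listed as 10. Values are given as percent.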

T1 sequence (Q5VT25 whole entry): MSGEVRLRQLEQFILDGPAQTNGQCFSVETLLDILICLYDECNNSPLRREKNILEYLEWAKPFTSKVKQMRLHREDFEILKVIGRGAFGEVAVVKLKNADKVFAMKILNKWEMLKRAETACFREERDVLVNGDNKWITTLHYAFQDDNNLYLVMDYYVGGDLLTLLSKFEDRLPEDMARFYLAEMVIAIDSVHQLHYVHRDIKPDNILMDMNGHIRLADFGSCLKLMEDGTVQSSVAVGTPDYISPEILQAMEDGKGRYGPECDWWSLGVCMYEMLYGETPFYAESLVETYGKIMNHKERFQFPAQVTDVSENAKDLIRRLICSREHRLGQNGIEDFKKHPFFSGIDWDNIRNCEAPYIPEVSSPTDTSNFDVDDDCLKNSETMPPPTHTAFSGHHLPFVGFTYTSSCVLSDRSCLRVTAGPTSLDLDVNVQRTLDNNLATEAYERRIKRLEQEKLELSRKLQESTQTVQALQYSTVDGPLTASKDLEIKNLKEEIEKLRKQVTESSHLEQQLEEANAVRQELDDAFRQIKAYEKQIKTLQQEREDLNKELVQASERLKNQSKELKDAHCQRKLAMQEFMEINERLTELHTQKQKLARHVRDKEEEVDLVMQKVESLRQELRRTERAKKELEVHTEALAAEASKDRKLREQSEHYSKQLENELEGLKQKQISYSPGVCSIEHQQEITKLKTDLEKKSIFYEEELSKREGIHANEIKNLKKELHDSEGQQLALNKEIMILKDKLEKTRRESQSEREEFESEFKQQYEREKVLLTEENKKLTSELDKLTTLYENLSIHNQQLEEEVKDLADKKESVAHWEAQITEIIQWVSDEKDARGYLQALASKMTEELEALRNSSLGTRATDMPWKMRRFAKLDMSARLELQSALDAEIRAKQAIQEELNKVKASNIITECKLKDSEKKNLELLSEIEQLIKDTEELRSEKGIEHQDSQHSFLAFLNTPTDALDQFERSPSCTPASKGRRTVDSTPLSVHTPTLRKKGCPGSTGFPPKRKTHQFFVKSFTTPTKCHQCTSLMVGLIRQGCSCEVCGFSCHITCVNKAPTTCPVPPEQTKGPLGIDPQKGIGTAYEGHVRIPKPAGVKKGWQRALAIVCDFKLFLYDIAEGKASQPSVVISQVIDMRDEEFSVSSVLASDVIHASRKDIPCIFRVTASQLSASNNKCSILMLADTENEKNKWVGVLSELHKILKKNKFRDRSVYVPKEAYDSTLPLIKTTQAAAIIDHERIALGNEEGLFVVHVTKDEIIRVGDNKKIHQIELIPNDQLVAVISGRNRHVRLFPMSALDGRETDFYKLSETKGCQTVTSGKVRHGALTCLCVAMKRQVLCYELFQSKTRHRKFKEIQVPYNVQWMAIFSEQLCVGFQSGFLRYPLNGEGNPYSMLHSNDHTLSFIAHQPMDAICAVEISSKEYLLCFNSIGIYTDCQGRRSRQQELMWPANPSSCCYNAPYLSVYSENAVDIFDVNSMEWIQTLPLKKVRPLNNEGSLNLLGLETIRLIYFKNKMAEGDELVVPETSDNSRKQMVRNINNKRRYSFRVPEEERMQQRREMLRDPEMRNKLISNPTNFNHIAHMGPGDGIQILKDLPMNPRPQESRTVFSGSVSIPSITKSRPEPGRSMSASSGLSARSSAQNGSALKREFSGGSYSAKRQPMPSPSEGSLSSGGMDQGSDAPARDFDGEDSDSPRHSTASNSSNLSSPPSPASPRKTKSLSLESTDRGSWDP

CN(C(=O)CN1CCOCC1)c1ccc2sc3c(-c4cccc5c(=O)cc(N6CC7CCC(C6)O7)oc45)cccc3c2c1 [NU5455]
inhibition at 1 µM: 5%
